According to patent publication US20200062776A1, “HEDGEHOG ACYLTRANSFERASE INHIBITORS AND USES THEREOF” (Memorial Sloan-Kettering Cancer Center, priority 2016, published 2020):

Assays:
purified Hhat = target: T1, purified Hhat (Homo sapiens, UniProt Q5VTY9); experiment: Pulldown assay: purified Hhat + 125I-palmitoyl CoA + Shh peptide; assay type: biochemical; settings: 1 hr at 20° C.; read-out: IC50, Shh palmitoylation by purified Hhat
T1 construct: HA; made in house; host or cells: 293FT cells
T1 sequence (Q5VTY9 whole entry): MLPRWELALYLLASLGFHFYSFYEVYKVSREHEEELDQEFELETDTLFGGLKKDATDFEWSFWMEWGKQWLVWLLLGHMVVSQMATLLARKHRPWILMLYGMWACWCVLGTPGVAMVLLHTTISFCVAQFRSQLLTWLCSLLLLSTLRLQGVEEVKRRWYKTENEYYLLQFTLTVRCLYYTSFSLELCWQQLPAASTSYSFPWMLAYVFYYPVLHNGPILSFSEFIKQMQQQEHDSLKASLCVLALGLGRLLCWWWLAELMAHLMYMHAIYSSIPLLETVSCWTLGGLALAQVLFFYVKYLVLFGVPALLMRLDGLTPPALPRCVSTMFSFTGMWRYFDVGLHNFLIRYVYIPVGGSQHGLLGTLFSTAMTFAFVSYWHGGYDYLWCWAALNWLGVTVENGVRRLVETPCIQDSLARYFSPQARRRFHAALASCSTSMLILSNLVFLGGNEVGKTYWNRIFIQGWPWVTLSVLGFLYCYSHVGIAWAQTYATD
Experimental: FIG. 3. TDI-003410 inhibits Shh palmitoylation by purified Hhat. Pulldown assay: Purified Hhat+^125I-palmitoyl CoA+Shh peptide. […] Hhat was purified to homogeneity from 293FT cells transfected with a cDNA encoding HA-tagged Hhat, as described by Buglino and Resh (see, e.g., Buglino, J. A., and Resh, M. D. “Hhat is a palmitoyl acyltransferase with specificity for N-palmitoylation of sonic hedgehog” J. Biol. Chem. 2008, 283, 22076-22088). Purified Hhat was incubated with ^125I-Iodopalmitoyl CoA and a C-terminally biotinylated Shh peptide (representing the first 10 amino acids of mature Shh) for 1 hr at 20° C. in the presence of the indicated concentrations of TDI-3410. The reaction was quenched, and biotinylated peptides were captured on streptavidin-agarose beads by repeated centrifugation and washing. The amount of 125 radioactivity remaining in the bead pellet was determined in a g counter. % Inhibition was calculated as in FIG. 1A.

membrane-bound Hhat = target: T2, membrane-bound Hhat (Homo sapiens, UniProt Q5VTY9); experiment: Shh palmitoylation by membrane-bound Hhat (P100 membranes, SPA); assay type: biochemical; settings: 1 hr at 20° C., triplicate
T2 construct: HA; expressed in transfected cells; host or cells: 293FT cells (P100 microsomal membranes)
T2 sequence (Q5VTY9 whole entry): as above
Experimental: Microsomal membranes (P100) were prepared from 293FT cells transfected with a cDNA encoding HA-tagged Hhat as described (see, e.g., Buglino, J. A., and Resh, M. D. “Hhat is a palmitoyl acyltransferase with specificity for N-palmitoylation of sonic hedgehog” J. Biol. Chem. 2008, 283, 22076-22088; Petrova, E., Rios-Esteves, J., Ouerfelli, O., Glickman, J. F., and Resh, M. D. “Inhibitors of Hedgehog acyltransferase block Sonic Hedgehog signaling” Nat Chem Biol 2013, 9, 247-249). The protocol described by Petrova et al. (Nat Chem Biol 2013, 9, 247-249) was used to analyze Shh palmitoylation. Briefly, P100 membranes were incubated with ^125I-Iodopalmitoyl CoA and a C-terminally biotinylated Shh peptide in 384-well plates in the presence of the indicated concentrations of TDI-3410 for 1 hr at 20° C. Biotinylated peptides were captured on streptavidin-coated SPA (Scintillation Proximity Assay) beads and the amount of ^125I radioactivity was quantified on a Perkin-Elmer Trilux reader. Each data point represents the average of triplicate samples. % Inhibition was calculated as in FIG. 1A.

[1] = tested on: AsPC1 human pancreatic cancer cells; experiment: AsPC1 cell growth, 96-well plates, 6 days, EZQuant; assay type: cell-based; settings: 750 cells/well
Experimental: (§1) AsPC1 human pancreatic cancer cells (FIG. 5A) or T47D human breast cancer cells (FIG. 5B) were seeded at 750 cells/well in 96 well plates and grown for 6 days in the presence of the indicated concentrations of TDI-3410 or DMSO. Compounds were added on Day 0, and were replenished in the media every 2 days. Each condition was represented by duplicate wells. Cell number was quantified at Day 6 using EZQuant (Alstem).

Hhat = Hhat (Homo sapiens, UniProt Q5VTY9); experiment: Hhat-mediated Shh palmitoylation in COS-1 cells transfected with Shh and Hhat ([125I]-iodopalmitate labeling); assay type: cell-based; parameters: dose or concentration left out as unconfirmed; settings: 4 hr labeling at 37° C.
Chain of Hhat (Q5VTY9 whole entry): as above
Experimental: FIGS. 1A-1B. […] FIG. 1A. COS-1 cells were transfected with cDNA plasmids encoding Shh and Hhat (see, e.g., Buglino, J. A., and Resh, M. D. “Hhat is a palmitoyl acyltransferase with specificity for N-palmitoylation of sonic hedgehog” J. Biol. Chem. 2008, 283, 22076-22088; Petrova, E., Rios-Esteves, J., Ouerfelli, O., Glickman, J. F., and Resh, M. D. “Inhibitors of Hedgehog acyltransferase block Sonic Hedgehog signaling” Nat Chem Biol 2013, 9, 247-249). 48 hours after transfection, cells were starved for 1 hour in DMEM containing 2% dialyzed fetal calf serum and then labeled for 4 hr at 37° C. with […] [^125I]-iodopalmitate in the presence of […] of the indicated compound or DMSO. Cell lysates were immunoprecipitated with anti-Shh antibody, analyzed by SDS-PAGE and dried gels were subjected to Phosphorimaging. The amount of radiolabel incorporated into Shh was quantified and compared to that obtained for DMSO (normalized to 1.0). % Inhibition=1−(signal in drug treated sample/signal in DMSO sample)×100. FIG. 1B. Structure of RU-SKI 43 (see, e.g., Petrova, E., Rios-Esteves, J., Ouerfelli, O., Glickman, J. F., and Resh, M. D. “Inhibitors of Hedgehog acyltransferase block Sonic Hedgehog signaling” Nat Chem Biol 2013, 9, 247-249).

HeLa cells = experiment: HeLa cell proliferation, 24-well plates, EZQuant; assay type: cell-based; parameters: effect on proliferation of HeLa cells: dose or concentration left out as unconfirmed
Experimental: 24-well plate; Drugs replenished every 2 days; viable cells quantified with EZQuant; STS=Staurosporine, a positive control for cell killing. […] HeLa cells were seeded at 0.5×10^5 cells/well in 24-well plates and proliferation was assayed as described for FIG. 5. Each compound was present […].

[2] = tested on: oncospheres derived from AsPC-1 human pancreatic cancer cells; experiment: AsPC-1 oncosphere growth, 7 days, EZQuant; assay type: cell-based; settings: ASPC1, drug replenished every 2 days, read-out: IC50, cell proliferation of AsPC-1 oncospheres
Experimental: AsPC-1 pancreatic cancer cells were grown on ultra-low attachment plates for 7-10 days in serum-free medium containing EGF, FGF, Insulin and N-2 and B-27 supplement to form oncospheres, which represent cancer stem cells. Oncosphere cultures were expanded and replated, and were used after 7 days in 2° culture. Oncospheres grown in 24-well plates were treated with TDI-3410 or vehicle; drug was replenished every 2 days. 7 days later, oncospheres were dissociated with trypsin and total viable cell number was determined using EZQuant.

H1703 oncospheres = experiment: H1703 oncosphere growth, 10 days, EZQuant; assay type: cell-based, human; settings: for cell count of H1703 oncospheres: compounds replenished every 2 days
Experimental: Duplicate wells were treated with the indicated concentrations of compound for 10 days. Compounds were replenished in the media every 2 days. Cell number was quantified at Day 10 using EZQuant (Alstem).

[3] = tested on: AsPC1 human pancreatic cancer cells; experiment: AsPC1 cell growth, 24-well plates, 6 days, Crystal violet staining; assay type: cell-based; settings: ASPC1, 144 h, FIG. 2D inhibition curve
Experimental: FIGS. 2A-2D show inhibition of the growth of AsPC1 cells by TDI compounds. […] Compounds were added on Day 0, and were replenished in the media every 2 days. Each condition was represented by duplicate wells. Cell number was quantified by Crystal violet staining. FIG. 2A. Growth curve. FIG. 2B. Crystal violet staining of a typical set of 6 wells. FIG. 2C. Bar graph depicting % inhibition of cell proliferation at Day 6 for each compound, compared to DMSO treated cells. % Inhibition was calculated as in FIG. 1A.

[4] = tested on: T47D human breast cancer cells; experiment: T47D cell growth, 96-well plates, 6 days, EZQuant; assay type: cell-based; settings: 750 cells/well
Experimental: as §1

Row | IC50 (purified Hhat) | IC50 (membrane-bound Hhat) | Hhat-mediated Shh palmitoylation (Hhat) | IC50 (HeLa cells; Homo sapiens, HeLa, FIG. 6B inhibition curve, read-out: IC50, growth of HeLa cells) | IC50 [2] | IC50 (H1703 oncospheres; Homo sapiens, NCI-H1703, 240 h) | IC50 [3] | SMILES | growth of AsPC1 human pancreatic cancer cells [1] | concentration above which growth of HeLa cells is inhibited (HeLa cells; FIG. 6B) | effect on proliferation of HeLa cells (HeLa cells; HeLa cells express no detectable Hhat) | cell count of H1703 oncospheres (H1703 oncospheres) | growth of T47D human breast cancer cells [4]
1 | 1500 nM | 1780 nM | blocks Hhat-mediated Shh palmitoylation | 28500 nM | 1800 nM | 1400 nM | 2680 nM | O=C(c1ccc2nccn2c1)N1CCc2sc(Cl)cc2[C@H]1c1ccc(F)cc1 [TDI-003410] | inhibits the growth | > 20 µM | little to no effect | reduction in cell count with increased concentration | inhibits the growth
2 |  |  |  |  |  |  |  | CCC(C)CNCC(=O)N1CCc2sccc2C1COc1cccc(C)c1 (stereo not shown) [RU-SKI 43, reference compound] |  |  |  | reduction in cell count with increased concentration | 
